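Interpolation was linear, between the two tested concentrations surrounding the appropriate level; five concentrations were tested over 48 hours in 96-well plates. At the TGI there is no net growth.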
Tests used:
Experiment in all cases: NCI tumour cell line growth inhibition, 48 h
[1] = test system: BT-549 breast
[2] = test system: DU-145 prostate
[3] = test system: NCI-H522 lung
[4] = test system: HOP-92 NSCLC
[5] = test system: MALME-3M melanoma
[6] = test system: SF-539 CNS
[7] = test system: TK-10 renal
[8] = test system: UO-31 renal
[9] = test system: RXF 393 renal
[10] = test system: RPMI-8226 leukemia
[11] = test system: T-47D breast
[12] = test system: OVCAR-3 ovarian
[13] = test system: SF-268 CNS
[14] = test system: SNB-75 CNS
[15] = test system: SW-620 colon
[16] = test system: A498 renal
[17] = test system: LOX IMVI melanoma
[18] = test system: KM12 colon
[19] = test system: HCT-116 colon
[20] = test system: NCI/ADR-RES ovarian
[21] = test system: MDA-MB-435
[22] = test system: PC-3 prostate
[23] = test system: SNB-19 CNS
[24] = test system: SK-MEL-2 melanoma
[25] = test system: HS 578T breast
[26] = test system: HCT-15 colon
[27] = test system: MDA-MB-231 breast
[28] = test system: COLO 205 colon
[29] = test system: ACHN renal
[30] = test system: NCI-H226 lung
[31] = test system: NCI-H460 lung
[32] = test system: NCI-H23 lung
[33] = test system: CAKI-1 renal
[34] = test system: HOP-62 NSCLC
[35] = test system: SF-295 CNS
[36] = test system: U251 CNS
[37] = test system: EKVX NSCLC
[38] = test system: HCC-2998 colon
[39] = test system: M14 melanoma
[40] = test system: SR leukemia
[41] = test system: K-562 leukemia
[42] = test system: SK-MEL-28 melanoma
[43] = test system: HT29 colon
[44] = test system: CCRF-CEM leukemia
[45] = test system: OVCAR-8 ovarian
[46] = test system: SK-OV-3 ovarian
[47] = test system: SK-MEL-5 melanoma
[48] = test system: UACC-62 melanoma
[49] = test system: MOLT-4 leukemia
[50] = test system: OVCAR-4 ovarian
[51] = test system: SN12C renal
[52] = test system: MDA-N
[53] = test system: A549 NSCLC
[54] = test system: MCF7 breast
[55] = test system: IGROV1 ovarian
[56] = test system: 786-0 renal
[57] = test system: OVCAR-5 ovarian
[58] = test system: UACC-257 melanoma
[59] = test system: HL-60(TB) leukemia

For `O=C1c2ccccc2NC(=S)[C@@H]2CCCN12`, the TGI [1] was > 100 µM, the TGI [2] was > 100 µM and the TGI [3] was > 100 µM. The TGI [4] was > 100 µM, the TGI [5] was > 100 µM and the TGI [6] was > 100 µM. For the same compound, the TGI [7] was > 100 µM, the TGI [8] was > 100 µM and the TGI [9] was > 100 µM. For the same compound, the TGI [10] was > 100 µM, the TGI [11] was > 100 µM and the TGI [12] was > 100 µM. For the same compound, the TGI [13] was > 100 µM, the TGI [14] was > 100 µM and the TGI [15] was > 100 µM. For the same compound, the TGI [16] was > 100 µM, the TGI [17] was > 100 µM and the TGI [18] was > 100 µM. The TGI [19] was > 100 µM, the TGI [20] was > 100 µM and the TGI [21] was > 100 µM. For the same compound, the TGI [22] was > 100 µM, the TGI [23] was > 100 µM and the TGI [24] was > 100 µM. For the same compound, the TGI [25] was > 100 µM, the TGI [26] was > 100 µM and the TGI [27] was > 100 µM. The TGI [28] was > 100 µM, the TGI [29] was > 100 µM and the TGI [30] was > 100 µM. For the same compound, the TGI [31] was > 100 µM, the TGI [32] was > 100 µM and the TGI [33] was > 100 µM. For the same compound, the TGI [34] was > 100 µM, the TGI [35] was > 100 µM and the TGI [36] was > 100 µM. The TGI [37] was > 100 µM, the TGI [38] was > 100 µM and the TGI [39] was > 100 µM. For the same compound, the TGI [40] was > 100 µM, the TGI [41] was > 100 µM and the TGI [42] was > 100 µM. The TGI [43] was > 100 µM, the TGI [44] was > 100 µM and the TGI [45] was > 100 µM. The TGI [46] was > 100 µM, the TGI [47] was > 100 µM and the TGI [48] was > 100 µM. For the same compound, the TGI [49] was > 100 µM, the TGI [50] was > 100 µM and the TGI [51] was > 100 µM. The TGI [52] was > 100 µM, the TGI [53] was > 100 µM and the TGI [54] was > 100 µM. The TGI [55] was > 100 µM, the TGI [56] was > 100 µM and the TGI [57] was > 100 µM. The TGI [58] was > 100 µM.

`CN(C)CCNC(=O)Cn1ccc(=O)c2c([N+](=O)[O-])cccc21` was tested, and the TGI [1] was > 100 µM, the TGI [2] was > 100 µM and the TGI [3] was > 100 µM. The TGI [5] was > 100 µM, the TGI [6] was > 100 µM and the TGI [7] was > 100 µM. For the same compound, the TGI [8] was > 100 µM, the TGI [9] was > 100 µM and the TGI [10] was > 100 µM. The TGI [11] was > 100 µM, the TGI [12] was > 100 µM and the TGI [13] was > 100 µM. The TGI [14] was > 100 µM, the TGI [15] was > 100 µM and the TGI [16] was > 100 µM. For the same compound, the TGI [17] was > 100 µM, the TGI [18] was > 100 µM and the TGI [19] was > 100 µM. The TGI [21] was > 100 µM, the TGI [22] was > 100 µM and the TGI [23] was > 100 µM. The TGI [24] was > 100 µM, the TGI [25] was > 100 µM and the TGI [26] was > 100 µM. The TGI [27] was > 100 µM, the TGI [28] was > 100 µM and the TGI [29] was > 100 µM. The TGI [30] was > 100 µM, the TGI [31] was > 100 µM and the TGI [32] was > 100 µM. For the same compound, the TGI [33] was > 100 µM, the TGI [34] was > 100 µM and the TGI [35] was > 100 µM. For the same compound, the TGI [36] was > 100 µM, the TGI [37] was > 100 µM and the TGI [38] was > 100 µM. For the same compound, the TGI [39] was > 100 µM, the TGI [40] was > 100 µM and the TGI [41] was > 100 µM. For the same compound, the TGI [42] was > 100 µM, the TGI [43] was > 100 µM and the TGI [44] was > 100 µM. For the same compound, the TGI [45] was > 100 µM, the TGI [46] was > 100 µM and the TGI [47] was > 100 µM. The TGI [48] was > 100 µM, the TGI [49] was > 100 µM and the TGI [50] was > 100 µM. The TGI [51] was > 100 µM, the TGI [52] was > 100 µM and the TGI [53] was > 100 µM. The TGI [54] was > 100 µM, the TGI [59] was > 100 µM and the TGI [55] was > 100 µM. The TGI [56] was > 100 µM, the TGI [57] was > 100 µM and the TGI [58] was > 100 µM.

In the case of `COc1cc2c(cc1OC)-c1cc3ccccc3c(=O)n1CC2`, the TGI [1] is reported as > 100 µM, the TGI [2] is reported as > 100 µM and the TGI [3] is reported as 40 µM. The TGI [4] was 63 µM, the TGI [5] was 61.5 µM and the TGI [6] was 41.9 µM. For the same compound, the TGI [7] was 50.7 µM, the TGI [8] was > 100 µM and the TGI [9] was 21.6 µM. The TGI [10] was 35 µM, the TGI [11] was 81.5 µM and the TGI [12] was 73.3 µM. The TGI [13] was > 100 µM, the TGI [14] was 92 µM and the TGI [15] was > 100 µM. It also gave a TGI [17] of 27.5 µM, a TGI [18] of 53.5 µM and a TGI [19] of 33.9 µM. For the same compound, the TGI [20] was > 100 µM, the TGI [21] was > 100 µM and the TGI [22] was 40.6 µM. For the same compound, the TGI [23] was > 100 µM, the TGI [24] was 48.8 µM and the TGI [25] was 50.2 µM. The TGI [27] was 43.8 µM, the TGI [28] was > 100 µM and the TGI [29] was > 100 µM. For the same compound, the TGI [30] was > 100 µM, the TGI [31] was 67.5 µM and the TGI [32] was > 100 µM. The TGI [33] was 64.9 µM, the TGI [34] was 37.1 µM and the TGI [35] was 62.1 µM. The TGI [36] was 97.9 µM, the TGI [37] was > 100 µM and the TGI [38] was 50.1 µM. The TGI [39] was 80.3 µM, the TGI [40] was 96.8 µM and the TGI [41] was > 100 µM. For the same compound, the TGI [42] was 90.5 µM, the TGI [43] was 98.9 µM and the TGI [44] was > 100 µM. For the same compound, the TGI [45] was > 100 µM, the TGI [46] was 74.5 µM and the TGI [47] was 23.5 µM. For the same compound, the TGI [48] was 39 µM, the TGI [49] was 97 µM and the TGI [50] was > 100 µM. The TGI [51] was > 100 µM, the TGI [52] was > 100 µM and the TGI [53] was > 100 µM. For the same compound, the TGI [54] was > 100 µM, the TGI [55] was 72.8 µM and the TGI [57] was > 100 µM. The TGI [58] was > 100 µM.

From PubChem BioAssay (NCI)
